Assay results: the supplement of paper PMC4862054

Experiments:
Settings in all cases: incubation time: 72 h
[1] = test system: BT-474; experiment: normalised response (% of control), CellTiter-Glo; higher = more viable cells (100 = DMSO, 0 = benzethonium chloride kill control)
Outline: (§1)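 Breast cancer cell lines were exposed for 72 h in 384-well plates to compound at 5 concentrations, 10-fold apart, covering a 10,000-fold range fixed for each compound. Plates were read for CellTox Green fluorescence and CellTiter-Glo luminescence and normalised to 0.1 % DMSO (100) and a positive kill control (0). Each value is the normalised signal at one concentration of the series.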

[2] = test system: BT-549; experiment: as above
Outline: as §1

[3] = test system: CAL-120; experiment: as above
Outline: as §1

[4] = test system: CAL-148; experiment: as above
Outline: as §1

[5] = test system: CAL-51; experiment: as above
Outline: as §1

[6] = test system: CAL-85-1; experiment: as above
Outline: as §1

[7] = test system: DU-4475; experiment: as above
Outline: as §1

[8] = test system: HCC1143; experiment: as above
Outline: as §1

[9] = test system: HCC1599; experiment: as above
Outline: as §1

[10] = test system: HCC1937; experiment: as above
Outline: as §1

[11] = test system: HDQ-P1; experiment: as above
Outline: as §1

[12] = test system: Hs578T; experiment: as above
Outline: as §1

[13] = test system: MCF-10A; experiment: as above
Outline: as §1

[14] = test system: MDA-MB-231; experiment: as above
Outline: as §1

[15] = test system: MDA-MB-436; experiment: as above
Outline: as §1

[16] = test system: MDA-MB-453; experiment: as above
Outline: as §1

[17] = test system: MDA-MB-468; experiment: as above
Outline: as §1

[18] = test system: MFM-223; experiment: as above
Outline: as §1

[19] = test system: SK-BR-3; experiment: as above
Outline: as §1

[20] = test system: BT-474; experiment: normalised viability (% of control), CellTiter-Blue; higher = more viable cells (100 = DMSO, 0 = benzethonium chloride kill control)
Description: (§2)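 DSRT, CellTiter-Blue viability, 72 h incubation. Signal is normalised to DMSO and benzethonium chloride controls. Value is the normalised response at dose 1.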

[21] = test system: BT-549; experiment: as above
Description: as §2

[22] = test system: CAL-120; experiment: as above
Description: as §2

[23] = test system: CAL-148; experiment: as above
Description: as §2

[24] = test system: CAL-51; experiment: as above
Description: as §2

[25] = test system: CAL-85-1; experiment: as above
Description: as §2

[26] = test system: DU-4475; experiment: as above
Description: as §2

[27] = test system: HCC1143; experiment: as above
Description: as §2

[28] = test system: HCC1599; experiment: as above
Description: as §2

[29] = test system: HCC1937; experiment: as above
Description: as §2

[30] = test system: HDQ-P1; experiment: as above
Description: as §2

[31] = test system: Hs578T; experiment: as above
Description: as §2

[32] = test system: MDA-MB-231; experiment: as above
Description: as §2

[33] = test system: MDA-MB-436; experiment: as above
Description: as §2

[34] = test system: MDA-MB-453; experiment: as above
Description: as §2

[35] = test system: MDA-MB-468; experiment: as above
Description: as §2

[36] = test system: MFM-223; experiment: as above
Description: as §2

[37] = test system: SK-BR-3; experiment: as above
Description: as §2

SMILES	normalised response [1]	normalised response [2]	normalised response [3]	normalised response [4]	normalised response [5]	normalised response [6]	normalised response [7]	normalised response [8]	normalised response [9]	normalised response [10]	normalised response [11]	normalised response [12]	normalised response [13]	normalised response [14]	normalised response [15]	normalised response [16]	normalised response [17]	normalised response [18]	normalised response [19]	normalised viability [20]	normalised viability [21]	normalised viability [22]	normalised viability [23]	normalised viability [24]	normalised viability [25]	normalised viability [26]	normalised viability [27]	normalised viability [28]	normalised viability [29]	normalised viability [30]	normalised viability [31]	normalised viability [32]	normalised viability [33]	normalised viability [34]	normalised viability [35]	normalised viability [36]	normalised viability [37]
COc1c(C)cnc(Cn2cnc3c(Cl)nc(N)nc32)c1C [BIIB021] (1 nM)	99.1%	95.6%	103%	106%	74%	98.1%	103%	97.6%	124%	103%	95.6%	106%	104%	112%	99%	106%	101%	102%	93.6%	91.7%	97.7%	76.8%	96.5%	101%	78.1%	87.7%	82.9%	143%	93.4%	86.4%	105%	76.3%	102%	93.9%	94.6%	80.8%	75.8%
CC(C)C[C@H](NC(=O)[C@H](Cc1ccccc1)NC(=O)c1cnccn1)B(O)O [Bortezomib] (0.1 nM)	98.6%	91.5%	102%	95.7%	90.9%	95.6%	103%	100%	95.9%	96.2%	93.6%	104%	113%	101%	93.4%	103%	89.8%	103%	101%	75.1%	82.3%	98.8%	104%	97.3%	104%	129%	98.8%	122%	82.9%	92.2%	96.4%	91.9%	103%	101%	91.8%	101%	88.8%
